One assay relates to anti-MBP autoantibody. Description: Serum anti-MBP autoantibody titer in EAE DA rats (Example 11). The format is in vivo. Particulars: EAE DA rats treated as in Example 10. How it is done: To determine anti-MBP autoantibody binding patters in sera from the EAE-induced rodent models and human MS patients, ELISA experiments were performed as follows. Microtiter plates (MaxiSorp-Nunc) were coated with 50 μl of a 10 μg/ml MBP solution or recombinant MBP peptides in 100 mM carbonate/bicarbonate buffer pH 9.0, in odd column wells. Plates were sealed with ELISA plate sealer (Costar) and incubated at 4° C. overnight and then washed (300 μl/well) three times with phosphate-buffered saline (PBS) containing 0.15% Tween-20. All the wells were then blocked with 250 μl 2% bovine serum albumin (BSA) (Sigma) in carbonate/bicarbonate buffer pH 9.0 and incubated for 1 hr at 37° C. The plates were washed with PBS containing 0.15% Tween-20. Serum antibodies were diluted in PBS containing 0.15% Tween-20 and 0.5% BSA at the final dilution of 1:1000-1:50000, and 50 μl of the diluted sample was added to each well of the plate. Rat anti-MBP monoclonal antibody (ab7349, Abcam) was used as control. […] The OD450 values were measured using a microplate reader Varioscan (Thermo, USA).
To investigate the immunological status of EAE induced DA rats after treatment with liposomally encapsulated MBP peptides, serum isolated from rats treated as described in Example 10 was analyzed for anti-MBP antibodies and CNS cytokine staining (FIG. 5). […]

The next assay deals with EAE-induced DA rats. Put plainly: EAE-induced DA rat model, paralysis score and mortality (DA-EAE-28-02, Example 13). Format: in vivo. Conditions: 54 EAE induced DA rats; daily s.c. injection, 6 total; deaths/N. The protocol: Each of the eight MBP peptide formulations were provided as a lyophilized powder and stored at 4° C. Rehydration of each formulation with water for injection was done daily according to Table 10. MBP peptide formulations were re-suspended in water for injection (Cure Medical) and copaxone (Teva LTD) was diluted with saline to a final concentration of 450 μg/mL. Each subject animal was administered the test formulation for 6 consecutive days by subcutaneous injection.
8-9 week old Dark Agouti (DA) female rats (Harlan Laboratories, Inc.), weighing between 110 and 145 grams were used as the test subjects. The health status of the animals used in this study was examined on arrival. Only animals in good health were acclimatized to laboratory conditions and were used in the study. Animals were provided food ad libitum and free access to drinking water. […]
The rats were evaluated up daily starting 24 hours after immunization. […]
9-11 days post EAE induction, 54 animals were divided to 10 groups (5-6 rats in each), and blood was collected from 2 rats of each group before the initiation of the treatment. […] The animals were maintained and evaluated until day 28th post EAE-induction. […]
Animals were observed individually and clinical signs were recorded once daily during all study periods. […] The body weight of each animals was determined daily during all study periods. […]

For glatiramer acetate [copaxone], the “Serum anti-MBP Antibody titer” value in the assay with anti-MBP autoantibody came to 1.0 ± 0.1. In the assay with EAE-induced DA rats, the “Mortality Rate” value is on record as 1/5.

(Values after patent publication US20160175249A1, “Liposomes Containing Oligopeptide Fragments of Myelin Basic Protein, a Pharmaceutical Composition and a Method for Treatment of Multiple Sclerosis” (LIPOXEN TECHNOLOGIES LIMITED, priority 2009, published 2016).)
